Test results taken from US20250235486A1, “Method of Producing Insulin-Producing Cells” (Monash University, priority 2022, published 2025).

What was measured:
Format in all cases: cell-based
[1] = system: Human immortalised ductal cell line; assay: qRT-PCR gene expression in human immortalised ductal cell line; details: ursolic acid 1, 2.5 or 5 μM; GSK126 5, 10 or 20 μM
Description: Human immortalised ductal cell line (Catalog #: T0018001, Addexbio) was cultured and assayed in Keratinocyte SFM (serum-free medium) (Catalog number 17005042, ThermoFisher Scientific, USA). Pharmacological inhibition of EZH2 and gene expression analysis were performed as described in Example 1.

[2] = system: Human pancreatic ductal epithelial cells; assay: qRT-PCR after 2- and 7-day EZH2 inhibitor stimulation of human pancreatic ductal epithelial cells; details: GSK-126 10 μM
Description: Human pancreatic ductal epithelial cells were purchased from AddexBio and cultured according to the recommended protocols. Cells were cultured in complete Keratinocyte Serum-Free Media (supplemented with human recombinant EGF, Bovine Pituitary Extract and Antibiotic-Antimycotic [Gibco]. All cell cultures were grown and maintained in a 37° C., 5% C02 environment using a tissue culture incubator. Once cells reached 70-80% confluency, passaging was performed using 0.05% Trypsin EDTA (Sigma). […] Vehicle control was DMSO. Cells were treated over 2 main timepoints, with harvests occurring following 2, and 7 days. For the 2-day time point, cells were seeded and left to adhere in plates for 24 hours. Treatment was initiated with the first dose made up in complete K-SFM. The second dose was delivered 24 hours later following a media change. For the longer period of 7 days, cells were initially seeded in 10 cm plates, with doses delivered on alternate days following the initial period of 24 hours. […] Ct values of experimental genes were normalized to housekeeping gene [MUT]. Fold change of mRNA abundance was calculated by normalizing drug treated values to vehicular controls. […] RNA was isolated using the RNeasy Kit according to the manufacturer's directions. Following measurement of RNA concentration using a QIAxpert System, 1 μg of RNA was used for cDNA synthesis by a high-capacity cDNA Reverse Transcription Kit (Applied Biosystems). The resulting cDNA reaction mix was diluted 1:6 to make up the final template cDNA used subsequently. […] Ct values of experimental genes were normalized to housekeeping gene [MUT]. Fold change of mRNA abundance was calculated by normalizing drug treated values to vehicular controls.

[3] = system: Human pancreatic ductal epithelial cells; assay: Glucose stimulated insulin secretion assay (ELISA)
Description: 5×10^5 cells were seeded in 12-well plates and allowed to adhere for 24 hours. […] Next, cells were cultured in 28 mM (High) glucose Krebs Buffer solution and incubated for 1 hour to obtain the glucose stimulated insulin secretion. Supernatant was collected and Ultrasensitive Insulin ELISA (Mercodia) was used to determine the concentration of insulin according to manufacturer's instructions. Fold change of insulin secreted by cells were calculated by adjusting to cells stimulated with EZH2 inhibitors for insulin concentrations compared to control.

[4] = system: marmoset exocrine (acinar and ductal) cells; assay: qRT-PCR gene expression in marmoset exocrine (acinar and ductal) cells; details: 48 hours: GSK126 10 μM, ursolic acid 5 μM
Description: (§1) Exocrine cells from a non-diabetic human and a marmoset were cultured and assayed in Miami/CMRL medium. The human exocrine cells were sourced from the Islet Transplant Unit of St Vincent's Institute for Medical Research. The marmoset exocrine cells were sourced from the Australian Regenerative Medicine Institute (ARMI), Monash University. Miami media is based on CMRL 1066 media (Connaught Medical Research Lab) supplemented with: Insulin, Transferrin & Selenium (ITS), human serum, Vitamin E, sodium pyruvate, zinc and HEPES. Pharmacological inhibition of EZH2 and gene expression analysis were performed as described in Example 1.

[5] = system: H3K27me3 content at promoters in human exocrine cells; assay: Chromatin immunoprecipitation (anti-H3K27me3) qPCR in exocrine cells of a non-diabetic donor; details: GSK126 vs DMSO
Description: Chromatin immunoprecipitation assays in human exocrine cells were performed previously described (Rafehi H, et al. Vascular histone deacetylation by pharmacological HDAC inhibition. Genome Res 24, 1271-1284 (2014); Pirola L, et al. Genome-wide analysis distinguishes hyperglycemia regulated epigenetic signatures of primary vascular cells. Genome Res 21, 1601-1615 (2011)). Cells were fixed for 10 minutes with 1% formaldehyde and quenched for 10 mins with glycine (0.125 M) solution. Fixed cells were resuspended in sodium dodecyl (lauryl) sulfate (SDS) lysis buffer (1% SDS, 10 mM EDTA, 50 mM Tris-HCl pH 8.1) including a protease inhibitor cocktail (Roche Diagnostics GmBH, Mannheim, Germany) and homogenized followed by incubation on ice for 5 minutes. […] H3K27me3 content at the promoters of the INS, INS-IGF2, NGN3 and PDX1 genes were assessed by qPCR using primers designed from the integrative ENCODE resource (Zhang J, et al. An integrative ENCODE resource for cancer genomics. Nat Commun 11, 3696 (2020)).
Proteins were cross-linked to DNA and soluble chromatin fractionated by sonication. […] DNA was assessed by qPCR using amplimers specifically designed to detect human Ins chromatin domain genes (FIG. 5a). […]

[6] = system: human exocrine (acinar and ductal) cells; assay: qRT-PCR gene expression in human exocrine (acinar and ductal) cells from a non-diabetic donor; details: 48 hours: GSK126 10 μM, CPI-1205 5 μM, ursolic acid 5 μM, GSK343 5 μM, EPZ-6438 5 μM
Description: as §1

[7] = system: H3K27me3 or H3K9/14ac content at the promoters of INS-IGF2, NGN3 and PDX1 in human pancreatic ductal epithelial cells; assay: Quantitative PCR chromatin immunoprecipitation (q-PCR ChIP) after 2- and 7-day stimulation; details: 2-day stimulation (FIG. 12b)
Description: Approximately 5×10^6 cells were fixed in 1% formaldehyde for 10 minutes, with a further 10-minute incubation in 0.125M glycine to quench the cross-linking reaction. The fixed cell pellet was lysed following resuspension and homogenization in sodium dodecyl (lauryl) sulphate (SOS) lysis buffer (1% SOS, 10 mM EDTA, 50 mM Tris-HCl pH 8.1) with a protease inhibitor cocktail (Roche Diagnostics GmBH, Mannheim, Germany) included. Samples were incubated on ice for 5 minutes following which sonication was performed to shear chromatin between 200-600 bp. Sonicated chromatin was resuspended in ChIP Dilution Buffer (0.01% SOS, 1.1% Triton X-100, 1.2 mM EDTA, 16.7 mM Tris-HCl pH 8.0 and 167 mM NaCl). 20 μl of DynabeadsR Protein A (Invitrogen, Carlsbad, CA, USA) was added to each sample and pre-cleared. Overnight incubation at 4° C. with H3K27me3 or H3K9/14ac antibody was used for immunoprecipitation of chromatin, as previously described. Immunoprecipitates were collected by magnetic isolation and washed sequentially with low salt and high salt buffers. Immunoprecipitated DNA was then eluted from solution with 0.1 M NaHCO3 containing 1% SIDS. Protein-DNA cross-links were reversed by incubation of samples in Proteinase K (Sigma, St. Louis, MO, USA) for 2 hours at 62° C. DNA was purified using a Qiagen MinElute column (Qiagen Inc., Valencia, CA, USA). H3K27me3 or H3K9/14ac content at the promoters of the INS-IGF2, NGN3 and PDX1 genes were assessed by qPCR using primers designed from the integrative ENCODE resource.

[8] = 2 days, EPZ6438 1 μM, Triptolide 20 nM
[9] = 7 days, EPZ6438 1 μM, Triptolide 20 nM

CC[C@H](C)n1cc(C)c2c(C(=O)NCc3c(C)cc(C)[nH]c3=O)cc(-c3ccc(N4CCNCC4)nc3)cc21 [GSK126, N-[(1,2-Dihydro-4,6-dimethyl-2-oxo-3-pyridinyl)methyl]-3-methyl-1-[(1S)-1-methylpropyl]-6-[6-(1-piperazinyl)-3-pyridinyl]-1H-indole-4-carboxamide]
Insulin mRNA expression [1]: stimulated expression
Ngn3 mRNA expression [1]: stimulated expression
Pdx1 mRNA expression [1]: stimulated expression
MAFA mRNA levels ([2]; 2-day point, Triptolide 20 nM): increased in a statistically significant manner
Alpha-amylase (AMY2A) transcripts ([2]; 2 days): increased significantly
CK19 expression [2, 8]: statistically significant decreases
NGN3 mRNA levels [2, 8]: significantly elevated
insulin transcripts, mature mRNA (INS) [2, 8]: elevations
insulin transcripts, unprocessed heterogenous nuclear form (INS hnRNA) [2, 8]: elevations
NGN3 mRNA levels [2, 9]: Further increases
insulin transcripts, mature mRNA (INS) [2, 9]: even further increases
insulin transcripts, unprocessed heterogenous nuclear form (INS hnRNA) [2, 9]: even further increases
insulin concentration after incubation in high-glucose media (28 mM glucose, 1 hour) ([3]; 2-day stimulation (FIG. 13d), GSK126 10 μM, EPZ6438 1 μM, Triptolide 20 nM, not observed in DMSO control): significant elevations
Release of insulin (glucose stimulated) ([3]; 7 days stimulation (FIG. 13e)): maintained
Insulin mRNA expression [4]: stimulated expression
Pdx1 mRNA expression [4]: stimulated expression
H3K27me3 content at the Ins and Igf2AS promoter (R1-R3) regions ([5]; non-diabetic donor (2)): Significant reduction
H3K27me3 content on the Ngn3 promoter R1 ([5]; non-diabetic exocrine cells): marginally affected
mRNA expression of Insulin, Pdx1 and Ngn3 [6]: stimulated expression of one, two or all of Insulin, Pdx1 and Ngn3
H3K27me3 content of chromatin associated with NGN3 promoter [7]: significantly reduced
H3K27me3 content of chromatin associated with PDX1 promoter [7]: significantly reduced
H3K27me3 content of chromatin associated with the INS promoter domain [7]: significantly reduced
